Read-outs that look alike come from different tables or passages of the source.
System: NCI-60 standardized human tumor cell line panel
Assay: cells
Type: cell-based
[1] = cell line A549/ATCC (LC:A549/ATCC), TMI sheet
[2] = cell line BT-549 (BR:BT-549), TMI sheet
[3] = cell line CCRF-CEM (LE:CCRF-CEM), TMI sheet
[4] = cell line COLO 205 (CO:COLO 205), TMI sheet
[5] = cell line EKVX (LC:EKVX), TMI sheet
[6] = cell line HCC-2998 (CO:HCC-2998), TMI sheet
[7] = cell line HCT-15 (CO:HCT-15), TMI sheet
[8] = cell line HCT-116 (CO:HCT-116), TMI sheet
[9] = cell line HL-60(TB) (LE:HL-60(TB)), TMI sheet
[10] = cell line HOP-62 (LC:HOP-62), TMI sheet
[11] = cell line HOP-92 (LC:HOP-92), TMI sheet
[12] = cell line HT29 (CO:HT29), TMI sheet
[13] = cell line K-562 (LE:K-562), TMI sheet
[14] = cell line KM12 (CO:KM12), TMI sheet
[15] = cell line LOX IMVI (ME:LOX IMVI), TMI sheet
[16] = cell line M14 (ME:M14), TMI sheet
[17] = cell line MALME-3M (ME:MALME-3M), TMI sheet
[18] = cell line MCF7 (BR:MCF7), TMI sheet
[19] = cell line MDA-MB-435 (ME:MDA-MB-435), TMI sheet
[20] = cell line MOLT-4 (LE:MOLT-4), TMI sheet
[21] = cell line NCI-H23 (LC:NCI-H23), TMI sheet
[22] = cell line NCI-H226 (LC:NCI-H226), TMI sheet
[23] = cell line RPMI-8226 (LE:RPMI-8226), TMI sheet
[24] = cell line SF-539 (CNS:SF-539), TMI sheet
[25] = cell line SK-MEL-5 (ME:SK-MEL-5), TMI sheet
[26] = cell line SK-MEL-28 (ME:SK-MEL-28), TMI sheet
[27] = cell line SNB-19 (CNS:SNB-19), TMI sheet
[28] = cell line SR (LE:SR), TMI sheet
[29] = cell line SW-620 (CO:SW-620), TMI sheet
[30] = cell line T-47D (BR:T-47D), TMI sheet
[31] = cell line U251 (CNS:U251), TMI sheet
[32] = cell line UACC-62 (ME:UACC-62), TMI sheet
[33] = cell line UACC-257 (ME:UACC-257), TMI sheet

SMILES: COc1cc2cc(C(=O)N3CC(CCl)c4c3cc(OC(=O)N3CCN(C)C5CSSCC53)c3ccccc43)[nH]c2c(OC)c1OC (mixture of isomers) [Me-SS66T-CBI-TMI]
- GI50 (TK-10, read-out: GI50): 130 nM
- GI50 (U251, read-out: GI50): 11 nM
- GI50 (UACC-62, read-out: GI50): 15 nM
- GI50 (UACC-257, read-out: GI50): 24 nM
- NCI-60 screening: Log(GI50) [1]: -7.92
- NCI-60 screening: Log(RedIndex) [1]: 2.22
- GI50 (cell line A549/ATCC (LC:A549/ATCC), TMI sheet, read-out: NCI-60 screening: Raw GI50): 12 nM
- NCI-60 screening: Log(GI50) [2]: -7.81
- NCI-60 screening: Log(RedIndex) [2]: 2.01
- GI50 (cell line BT-549 (BR:BT-549), TMI sheet, read-out: NCI-60 screening: Raw GI50): 15 nM
- NCI-60 screening: Log(GI50) [3]: -7.58
- NCI-60 screening: Log(RedIndex) [3]: 1.58
- NCI-60 screening: Log(GI50) [4]: -7.31
- NCI-60 screening: Log(RedIndex) [4]: 1.44
- NCI-60 screening: Log(GI50) [5]: -7.74
- NCI-60 screening: Log(RedIndex) [5]: 2.03
- GI50 (cell line EKVX (LC:EKVX), TMI sheet, read-out: NCI-60 screening: Raw GI50): 18 nM
- NCI-60 screening: Log(GI50) [6]: -7.81
- NCI-60 screening: Log(RedIndex) [6]: 1.99
- GI50 (cell line HCC-2998 (CO:HCC-2998), TMI sheet, read-out: NCI-60 screening: Raw GI50): 15 nM
- NCI-60 screening: Log(GI50) [7]: -7.66
- NCI-60 screening: Log(RedIndex) [7]: 1.9
- NCI-60 screening: Log(GI50) [8]: -7.74
- NCI-60 screening: Log(RedIndex) [8]: 1.92
- GI50 (cell line HCT-116 (CO:HCT-116), TMI sheet, read-out: NCI-60 screening: Raw GI50): 18 nM
- NCI-60 screening: Log(GI50) [9]: -7.92
- NCI-60 screening: Log(RedIndex) [9]: 1.8
- GI50 (cell line HL-60(TB) (LE:HL-60(TB)), TMI sheet, read-out: NCI-60 screening: Raw GI50): 12 nM
- NCI-60 screening: Log(GI50) [10]: -7.91
- NCI-60 screening: Log(RedIndex) [10]: 1.68
- GI50 (cell line HOP-62 (LC:HOP-62), TMI sheet, read-out: NCI-60 screening: Raw GI50): 12 nM
- NCI-60 screening: Log(GI50) [11]: -7.57
- NCI-60 screening: Log(RedIndex) [11]: 1.97
- GI50 (cell line HOP-92 (LC:HOP-92), TMI sheet, read-out: NCI-60 screening: Raw GI50): 27 nM
- NCI-60 screening: Log(GI50) [12]: -7.47
- NCI-60 screening: Log(RedIndex) [12]: 1.65
- GI50 (cell line HT29 (CO:HT29), TMI sheet, read-out: NCI-60 screening: Raw GI50): 34 nM
- NCI-60 screening: Log(GI50) [13]: -7.61
- NCI-60 screening: Log(RedIndex) [13]: 1.44
- GI50 (cell line K-562 (LE:K-562), TMI sheet, read-out: NCI-60 screening: Raw GI50): 25 nM
- NCI-60 screening: Log(GI50) [14]: -7.36
- NCI-60 screening: Log(RedIndex) [14]: 1.68
- NCI-60 screening: Log(GI50) [15]: -7.91
- NCI-60 screening: Log(RedIndex) [15]: 1.96
- GI50 (cell line LOX IMVI (ME:LOX IMVI), TMI sheet, read-out: NCI-60 screening: Raw GI50): 12 nM
- NCI-60 screening: Log(GI50) [16]: -7.98
- NCI-60 screening: Log(RedIndex) [16]: 2.16
- GI50 (cell line M14 (ME:M14), TMI sheet, read-out: NCI-60 screening: Raw GI50): 10 nM
- NCI-60 screening: Log(GI50) [17]: -7.86
- NCI-60 screening: Log(RedIndex) [17]: 2.06
- NCI-60 screening: Log(GI50) [18]: -8.28
- NCI-60 screening: Log(RedIndex) [18]: 1.78
- NCI-60 screening: Log(GI50) [19]: -7.56
- NCI-60 screening: Log(RedIndex) [19]: 1.81
- GI50 (cell line MDA-MB-435 (ME:MDA-MB-435), TMI sheet, read-out: NCI-60 screening: Raw GI50): 27 nM
- NCI-60 screening: Log(GI50) [20]: -8
- NCI-60 screening: Log(RedIndex) [20]: 1.78
- NCI-60 screening: Log(GI50) [21]: -8.02
- NCI-60 screening: Log(RedIndex) [21]: 1.69
- GI50 (cell line NCI-H23 (LC:NCI-H23), TMI sheet, read-out: NCI-60 screening: Raw GI50): 9.5 nM
- NCI-60 screening: Log(GI50) [22]: -7.02
- NCI-60 screening: Log(RedIndex) [22]: 1.18
- NCI-60 screening: Log(GI50) [23]: -7.47
- NCI-60 screening: Log(RedIndex) [23]: 1.64
- GI50 (cell line RPMI-8226 (LE:RPMI-8226), TMI sheet, read-out: NCI-60 screening: Raw GI50): 34 nM
- NCI-60 screening: Log(GI50) (cell line SF-268 (CNS:SF-268), TMI sheet): -7.83
- GI50 (cell line SF-268 (CNS:SF-268), TMI sheet, read-out: NCI-60 screening: Raw GI50): 15 nM
- NCI-60 screening: Log(GI50) (cell line SF-295 (CNS:SF-295), TMI sheet): -8.01
- NCI-60 screening: Log(GI50) [24]: -8
- NCI-60 screening: Log(RedIndex) [24]: 2.12
- GI50 (cell line SF-539 (CNS:SF-539), TMI sheet, read-out: NCI-60 screening: Raw GI50): 10 nM
- NCI-60 screening: Log(GI50) [25]: -7.88
- NCI-60 screening: Log(RedIndex) [25]: 2.09
- NCI-60 screening: Log(GI50) [26]: -7.84
- NCI-60 screening: Log(RedIndex) [26]: 2.39
- GI50 (cell line SK-MEL-28 (ME:SK-MEL-28), TMI sheet, read-out: NCI-60 screening: Raw GI50): 15 nM
- NCI-60 screening: Log(GI50) [27]: -7.79
- NCI-60 screening: Log(RedIndex) [27]: 2.13
- GI50 (cell line SNB-19 (CNS:SNB-19), TMI sheet, read-out: NCI-60 screening: Raw GI50): 16 nM
- NCI-60 screening: Log(GI50) [28]: -8.4
- NCI-60 screening: Log(RedIndex) [28]: 1.84
- NCI-60 screening: Log(GI50) [29]: -7.24
- NCI-60 screening: Log(RedIndex) [29]: 1.51
- GI50 (cell line SW-620 (CO:SW-620), TMI sheet, read-out: NCI-60 screening: Raw GI50): 58 nM
- NCI-60 screening: Log(GI50) [30]: -7.3
- NCI-60 screening: Log(RedIndex) [30]: 1.58
- NCI-60 screening: Log(GI50) [31]: -7.96
- NCI-60 screening: Log(RedIndex) [31]: 2.14
- NCI-60 screening: Log(GI50) [32]: -7.82
- NCI-60 screening: Log(RedIndex) [32]: 2.01
- GI50 (cell line UACC-62 (ME:UACC-62), TMI sheet, read-out: NCI-60 screening: Raw GI50): 15 nM
- NCI-60 screening: Log(GI50) [33]: -7.62
- NCI-60 screening: Log(RedIndex) [33]: 1.92
- mean reductive index (mean over NCI cell lines, vs P-CC60): ca. 70
- GI50 (read-out: NCI-60 screening: Raw GI50): 160 nM
